Data as given in article PMC9762708 (Annals of Surgery, 2022).
Residues, ends and D or L forms follow the SMILES beside them.

Legend:
Experiment in all cases: MIC of phase IIb clinical isolates
Type in all cases: cell-based
[1] = tested on: Staphylococcus epidermidis; settings: 126 strains
[2] = tested on: Pseudomonas aeruginosa; settings: 74 strains
[3] = tested on: Enterobacter cloacae; settings: 63 strains
[4] = tested on: Klebsiella pneumoniae; settings: 45 strains
[5] = tested on: Acinetobacter baumannii; settings: 31 strains
[6] = tested on: Enterococcus faecalis; settings: 25 strains
[7] = tested on: Staphylococcus haemolyticus; settings: 23 strains
[8] = tested on: Escherichia coli; settings: 22 strains
[9] = tested on: Staphylococcus aureus; settings: 320 strains

| SMILES | Strains Resistant to Control Antibiotics [1] | Strains Resistant to Control Antibiotics [2] | Strains Resistant to Control Antibiotics [3] | Strains Resistant to Control Antibiotics [4] | Strains Resistant to Control Antibiotics [5] | Strains Resistant to Control Antibiotics [6] | Strains Resistant to Control Antibiotics [7] | Strains Resistant to Control Antibiotics [8] | Strains Resistant to Control Antibiotics [9] | MIC50 [1] [µg/mL] | MIC90 [1] [µg/mL] | MIC90 [2] [µg/mL] | MIC50 [6] [µg/mL] | MIC90 [6] [µg/mL] | MIC50 [7] [µg/mL] | MIC90 [7] [µg/mL] | MIC50 [8] [µg/mL] | MIC90 [8] [µg/mL] |
| --- | --- | --- | --- | --- | --- | --- | --- | --- | --- | --- | --- | --- | --- | --- | --- | --- | --- | --- |
| CO/N=C(\C(=O)N[C@@H]1C(=O)N2C(C(=O)O)=C(CSc3nc(=O)c(=O)[nH]n3C)CS[C@H]12)c1csc(N)n1 [Ceftriaxone, ceftriaxone] | No | 74 (100) n (%) | 8 n (%) | 18 (40.0) n (%) | 14 (45.2) n (%) | 25 (100) n (%) | No | 13 (59.1) n (%) |  |  |  |  |  |  |  |  |  |  |
| C[C@@H](O)[C@H]1C(=O)N2C(C(=O)O)=C(SCCN=CN)C[C@H]12 [Imipenem, imipenem] |  | 2 n (%) | 8 n (%) | 1 n (%) | 15 (48.4) n (%) |  |  | 0 n (%) |  |  |  |  |  |  |  |  |  |  |
| C[C@H]1COc2c(N3CCN(C)CC3)c(F)cc3c(=O)c(C(=O)O)cn1c23 [Levofloxacin, levofloxacin] | 41 (32.5) n (%) | 8 n (%) | 2 n (%) | 14 (31.1) n (%) | 5 n (%) | 2 n (%) | 14 (60.9) n (%) | 13 (59.1) n (%) | 56 (17.5) n (%) |  |  |  |  |  |  |  |  |  |
| CC[C@H](C)[C@H](NC(=O)[C@H](C)NC(=O)[C@H](CCCCN)NC(=O)[C@H](CC(C)C)NC(=O)[C@H](C)NC(=O)[C@@H](NC(=O)[C@H](Cc1c[nH]cn1)NC(=O)[C@H](CC(C)C)NC(=O)[C@@H](NC(=O)[C@@H](NC(=O)[C@H](CCCCN)NC(=O)[C@H](C)NC(=O)[C@H](C)NC(=O)[C@H](CO)NC(=O)[C@H](CCCCN)NC(=O)[C@H](Cc1ccccc1)NC(=O)[C@@H](NC(=O)[C@H](CCCCN)NC(=O)[C@H](CC(C)C)NC(=O)[C@H](Cc1ccccc1)NC(=O)[C@H](CO)NC(=O)[C@H](CCCCN)NC(=O)[C@H](Cc1c[nH]c2ccccc12)NC(=O)[C@H](CCCCN)NC(C)=O)[C@@H](C)O)[C@@H](C)O)C(C)C)[C@@H](C)O)C(=O)N[C@@H](CO)C(=O)N[C@@H](CO)C(N)=O [PL-5, Peceleganan] (Ac-KWKSFLKTFKSAAKTVLHTALKAISS-NH2; N-terminus and C-terminus assumed) |  |  |  |  |  |  |  |  |  | 4 | 4 | 8 | 64 | 128 | 2 | 8 | 8 | 16 |
| CN[C@H](CC(C)C)C(=O)N[C@H]1C(=O)N[C@@H](CC(N)=O)C(=O)N[C@H]2C(=O)N[C@H]3C(=O)N[C@H](C(=O)N[C@H](C(=O)O)c4cc(O)cc(O)c4-c4cc3ccc4O)[C@H](O)c3ccc(c(Cl)c3)Oc3cc2cc(c3O[C@@H]2O[C@H](CO)[C@@H](O)[C@H](O)[C@H]2O[C@H]2C[C@](C)(N)[C@H](O)[C@H](C)O2)Oc2ccc(cc2Cl)[C@H]1O [Vancomycin, vancomycin] | 0 n (%) |  |  |  |  | 0 n (%) | 0 n (%) |  | 0 n (%) |  |  |  |  |  |  |  |  |  |
